Source: PubChem BioAssay (NCI)
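Following 48 hours of exposure in 96-well plates, responses at five concentrations were used to interpolate endpoints linearly. GI50 is the concentration that inhibits growth by half. The concentration for full growth arrest is given as TGI.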

Key:
Assay in all cases: NCI-60 cell line screen, 48 h
[1] = test system: SK-MEL-5 melanoma
[2] = test system: CAKI-1 renal
[3] = test system: LOX IMVI melanoma
[4] = test system: A549 NSCLC
[5] = test system: TK-10 renal
[6] = test system: CCRF-CEM leukemia
[7] = test system: SF-539 CNS
[8] = test system: OVCAR-4 ovarian
[9] = test system: HT29 colon
[10] = test system: IGROV1 ovarian
[11] = test system: OVCAR-3 ovarian
[12] = test system: ACHN renal
[13] = test system: SK-OV-3 ovarian
[14] = test system: PC-3 prostate
[15] = test system: SR leukemia
[16] = test system: M14 melanoma
[17] = test system: RPMI-8226 leukemia
[18] = test system: NCI/ADR-RES ovarian
[19] = test system: SF-268 CNS
[20] = test system: MDA-MB-435
[21] = test system: HL-60(TB) leukemia
[22] = test system: SW-620 colon
[23] = test system: KM12 colon
[24] = test system: OVCAR-8 ovarian
[25] = test system: U251 CNS
[26] = test system: SNB-75 CNS
[27] = test system: MALME-3M melanoma
[28] = test system: EKVX NSCLC
[29] = test system: A498 renal
[30] = test system: NCI-H226 lung
[31] = test system: HCT-116 colon
[32] = test system: COLO 205 colon
[33] = test system: NCI-H460 lung
[34] = test system: UO-31 renal
[35] = test system: OVCAR-5 ovarian
[36] = test system: HCT-15 colon
[37] = test system: T-47D breast
[38] = test system: MCF7 breast
[39] = test system: UACC-62 melanoma
[40] = test system: HCC-2998 colon
[41] = test system: HS 578T breast
[42] = test system: UACC-257 melanoma
[43] = test system: HOP-62 NSCLC
[44] = test system: SN12C renal
[45] = test system: 786-0 renal
[46] = test system: RXF 393 renal
[47] = test system: NCI-H23 lung
[48] = test system: MOLT-4 leukemia
[49] = test system: SK-MEL-28 melanoma
[50] = test system: SK-MEL-2 melanoma
[51] = test system: MDA-MB-231 breast
[52] = test system: DU-145 prostate
[53] = test system: BT-549 breast
[54] = test system: SF-295 CNS
[55] = test system: K-562 leukemia
[56] = test system: SNB-19 CNS
[57] = test system: NCI-H522 lung
[58] = test system: HOP-92 NSCLC

C#CCOC(=O)/C=C/C(=O)Oc1ccc2c(C)cc(=O)oc2c1
GI50 [1]: > 100 µM | TGI [1]: > 100 µM | GI50 [2]: > 100 µM | TGI [2]: > 100 µM | GI50 [3]: > 100 µM | TGI [3]: > 100 µM | GI50 [4]: > 100 µM | TGI [4]: > 100 µM | GI50 [5]: > 100 µM | TGI [5]: > 100 µM | GI50 [6]: > 100 µM | TGI [6]: > 100 µM | GI50 [7]: > 100 µM | TGI [7]: > 100 µM | GI50 [8]: > 100 µM | TGI [8]: > 100 µM | GI50 [9]: > 100 µM | TGI [9]: > 100 µM | GI50 [10]: > 100 µM | TGI [10]: > 100 µM | GI50 [11]: > 100 µM | TGI [11]: > 100 µM | GI50 [12]: > 100 µM | TGI [12]: > 100 µM | GI50 [13]: > 100 µM | TGI [13]: > 100 µM | GI50 [14]: > 100 µM | TGI [14]: > 100 µM | GI50 [15]: > 100 µM | TGI [15]: > 100 µM | GI50 [16]: > 100 µM | TGI [16]: > 100 µM | GI50 [17]: > 100 µM | TGI [17]: > 100 µM | GI50 [18]: > 100 µM | TGI [18]: > 100 µM | GI50 [19]: > 100 µM | TGI [19]: > 100 µM | GI50 [20]: > 100 µM | TGI [20]: > 100 µM | GI50 [21]: > 100 µM | TGI [21]: > 100 µM | GI50 [22]: > 100 µM | TGI [22]: > 100 µM | GI50 [23]: > 100 µM | TGI [23]: > 100 µM | GI50 [24]: > 100 µM | TGI [24]: > 100 µM | GI50 [25]: > 100 µM | TGI [25]: > 100 µM | GI50 [26]: > 100 µM | TGI [26]: > 100 µM | GI50 [27]: > 100 µM | TGI [27]: > 100 µM | GI50 [28]: > 100 µM | TGI [28]: > 100 µM | GI50 [29]: > 100 µM | TGI [29]: > 100 µM | GI50 [30]: > 100 µM | TGI [30]: > 100 µM | GI50 [31]: > 100 µM | TGI [31]: > 100 µM | GI50 [32]: > 100 µM | TGI [32]: > 100 µM | GI50 [33]: > 100 µM | TGI [33]: > 100 µM | GI50 [34]: > 100 µM | TGI [34]: > 100 µM | GI50 [35]: > 100 µM | TGI [35]: > 100 µM | GI50 [36]: > 100 µM | TGI [36]: > 100 µM | GI50 [37]: > 100 µM | TGI [37]: > 100 µM | GI50 [38]: > 100 µM | TGI [38]: > 100 µM | GI50 [39]: > 100 µM | TGI [39]: > 100 µM | GI50 [40]: 40.8 µM | TGI [40]: > 100 µM | GI50 [41]: > 100 µM | TGI [41]: > 100 µM | GI50 [42]: > 100 µM | TGI [42]: > 100 µM | GI50 [43]: > 100 µM | TGI [43]: > 100 µM | GI50 [44]: > 100 µM | TGI [44]: > 100 µM | GI50 [45]: > 100 µM | TGI [45]: > 100 µM | GI50 [46]: > 100 µM | TGI [46]: > 100 µM | GI50 [47]: > 100 µM | TGI [47]: > 100 µM | GI50 [48]: > 100 µM | TGI [48]: > 100 µM | GI50 [49]: > 100 µM | TGI [49]: > 100 µM | GI50 [50]: > 100 µM | TGI [50]: > 100 µM | GI50 [51]: > 100 µM | TGI [51]: > 100 µM | GI50 [52]: > 100 µM | TGI [52]: > 100 µM | GI50 [53]: > 100 µM | TGI [53]: > 100 µM | GI50 [54]: > 100 µM | TGI [54]: > 100 µM | GI50 [55]: > 100 µM | TGI [55]: > 100 µM | GI50 [56]: > 100 µM | TGI [56]: > 100 µM | GI50 [57]: > 100 µM | TGI [57]: > 100 µM

CCCCc1n(Cc2ccc3ccccc3n2)cc[n+]1Cc1ccc2ccccc2n1
GI50 [1]: 0.827 µM | TGI [1]: 2.21 µM | GI50 [3]: 1.52 µM | TGI [3]: 4.67 µM | GI50 [4]: 4.75 µM | TGI [4]: 18.6 µM | GI50 [5]: 2.5 µM | TGI [5]: 10.3 µM | GI50 [6]: 1.59 µM | TGI [6]: 13.9 µM | GI50 [58]: 0.491 µM | TGI [58]: 4.34 µM | GI50 [7]: 1.8 µM | TGI [7]: 12.6 µM | GI50 [8]: 0.381 µM | TGI [8]: 13.5 µM | GI50 [9]: 0.801 µM | TGI [9]: 7.89 µM | GI50 [10]: 1.17 µM | TGI [10]: 10.9 µM | GI50 [11]: 0.698 µM | TGI [11]: 10.7 µM | GI50 [12]: 17 µM | TGI [12]: 42 µM | GI50 [13]: 2 µM | TGI [13]: 7.23 µM | GI50 [14]: 1.51 µM | TGI [14]: 10.6 µM | GI50 [15]: 0.537 µM | TGI [15]: 4.87 µM | GI50 [16]: 1.71 µM | TGI [16]: 10.2 µM | GI50 [17]: 0.295 µM | TGI [17]: 3.28 µM | GI50 [18]: > 100 µM | TGI [18]: > 100 µM | GI50 [19]: 2.18 µM | TGI [19]: 14.3 µM | GI50 [20]: 0.71 µM | TGI [20]: 7.78 µM | GI50 [21]: 0.295 µM | TGI [21]: 1.11 µM | GI50 [22]: 2.56 µM | TGI [22]: 13.7 µM | GI50 [23]: 0.742 µM | TGI [23]: 6.19 µM | GI50 [24]: 2.73 µM | TGI [24]: 12 µM | GI50 [25]: 0.925 µM | TGI [25]: 12.4 µM | GI50 [26]: 0.889 µM | TGI [26]: 6.01 µM | GI50 [27]: 0.946 µM | TGI [27]: 7.03 µM | GI50 [28]: 2.58 µM | TGI [28]: 20.2 µM | GI50 [29]: 3.01 µM | TGI [29]: 12.9 µM | GI50 [30]: 2.26 µM | TGI [30]: 11.8 µM | GI50 [31]: 2.1 µM | TGI [31]: 11 µM | GI50 [32]: 0.535 µM | TGI [32]: 2.28 µM | GI50 [33]: 1.87 µM | TGI [33]: 11.3 µM | GI50 [34]: 11.7 µM | TGI [34]: 24.5 µM | GI50 [35]: 2.66 µM | TGI [35]: 13.7 µM | GI50 [36]: 14.8 µM | TGI [36]: 31.5 µM | GI50 [37]: 0.375 µM | TGI [37]: 6.01 µM | GI50 [38]: 0.807 µM | TGI [38]: 11.2 µM | GI50 [39]: 0.749 µM | TGI [39]: 3.56 µM | GI50 [40]: 0.813 µM | TGI [40]: 10.4 µM | GI50 [41]: 2.76 µM | TGI [41]: 16.5 µM | GI50 [42]: 0.543 µM | TGI [42]: 4.32 µM | GI50 [43]: 2.72 µM | TGI [43]: 11.1 µM | GI50 [44]: 1.41 µM | TGI [44]: 11.1 µM | GI50 [45]: 4.65 µM | TGI [45]: 17.3 µM | GI50 [46]: 4.17 µM | TGI [46]: 16.5 µM | GI50 [47]: 0.499 µM | TGI [47]: 8.54 µM | GI50 [48]: 1.81 µM | TGI [48]: 11 µM | GI50 [49]: 1.05 µM | TGI [49]: 12.2 µM | GI50 [50]: 1.43 µM | TGI [50]: 5.58 µM | GI50 [51]: 1.77 µM | TGI [51]: 9.35 µM | GI50 [52]: 3.27 µM | TGI [52]: 16.2 µM | GI50 [53]: 0.97 µM | TGI [53]: 5.86 µM | GI50 [54]: 2.45 µM | TGI [54]: 9.88 µM | GI50 [55]: 0.621 µM | TGI [55]: 12.3 µM | GI50 [56]: 0.826 µM | TGI [56]: 12.9 µM | GI50 [57]: 0.445 µM | TGI [57]: 4.99 µM
